{
  "source": "patent US11226337B2",
  "about": "“Chemoproteomic profiling of protein electrophilic and oxidative post-translational modifications” (Zenagem, LLC, priority 2017, dated 2022)",
  "key": {"[1]": {"biological_target": "T1, MAN2B1 Lysosomal alphamannosidase (O00754) (Homo sapiens, UniProt O00754)", "T1 construct": "shared by both the endogenous and recombinant forms of these proteins; endogenous in cells; host or cells: HEK293T and MDA-MB-231", "T1 sequence (O00754 50-1011)": "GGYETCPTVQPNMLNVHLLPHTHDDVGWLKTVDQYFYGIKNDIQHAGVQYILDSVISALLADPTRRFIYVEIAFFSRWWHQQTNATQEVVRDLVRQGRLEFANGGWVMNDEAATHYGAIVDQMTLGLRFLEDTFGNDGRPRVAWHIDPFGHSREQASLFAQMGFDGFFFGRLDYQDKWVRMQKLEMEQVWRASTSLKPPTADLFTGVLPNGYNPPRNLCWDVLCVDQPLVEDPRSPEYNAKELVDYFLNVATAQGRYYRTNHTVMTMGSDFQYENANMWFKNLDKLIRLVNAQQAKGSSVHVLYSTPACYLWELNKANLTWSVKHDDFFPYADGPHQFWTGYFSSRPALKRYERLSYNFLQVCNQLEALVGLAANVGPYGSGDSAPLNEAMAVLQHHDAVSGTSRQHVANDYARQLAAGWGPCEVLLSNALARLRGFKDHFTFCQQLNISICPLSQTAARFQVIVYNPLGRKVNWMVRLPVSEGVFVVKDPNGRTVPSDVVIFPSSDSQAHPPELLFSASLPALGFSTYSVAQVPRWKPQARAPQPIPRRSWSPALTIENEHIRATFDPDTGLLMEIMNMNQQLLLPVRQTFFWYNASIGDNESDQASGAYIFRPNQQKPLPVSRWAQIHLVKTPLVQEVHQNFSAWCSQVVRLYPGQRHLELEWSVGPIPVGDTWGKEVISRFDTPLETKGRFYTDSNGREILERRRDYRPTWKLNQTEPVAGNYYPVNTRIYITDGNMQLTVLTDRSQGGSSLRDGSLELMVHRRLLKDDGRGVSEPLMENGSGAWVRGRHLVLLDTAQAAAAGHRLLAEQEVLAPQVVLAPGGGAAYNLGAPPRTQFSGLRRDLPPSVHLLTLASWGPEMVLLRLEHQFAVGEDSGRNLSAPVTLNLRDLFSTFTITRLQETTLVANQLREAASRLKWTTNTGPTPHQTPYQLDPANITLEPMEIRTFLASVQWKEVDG", "assay": "SILAC RP-ABPP", "assay_type": "cell-based", "conditions": "SILAC H/L, MDA-MB-231"}, "[2]": {"biological_target": "T2, CTSD Cathepsin D (P07339) (Homo sapiens, UniProt P07339)", "T2 construct": "In Situ Labelling of Cells with Hydrazine Probes for MS Experiments; endogenous in cells; host or cells: HEK293T and MDA-MB-231", "T2 sequence (P07339 65-412)": "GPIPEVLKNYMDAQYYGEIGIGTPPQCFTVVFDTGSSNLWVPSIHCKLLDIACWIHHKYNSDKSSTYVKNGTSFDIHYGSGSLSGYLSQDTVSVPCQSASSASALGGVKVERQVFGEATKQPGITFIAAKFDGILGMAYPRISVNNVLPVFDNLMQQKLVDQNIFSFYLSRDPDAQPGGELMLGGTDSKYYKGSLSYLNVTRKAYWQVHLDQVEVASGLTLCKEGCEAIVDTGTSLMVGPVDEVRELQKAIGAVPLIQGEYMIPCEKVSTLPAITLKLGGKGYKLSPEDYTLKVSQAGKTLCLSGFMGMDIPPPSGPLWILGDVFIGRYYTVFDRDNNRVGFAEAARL", "assay": "SILAC RP-ABPP", "assay_type": "cell-based", "conditions": "SILAC H/L"}},
  "data": [
    {"smiles": "C#CCNN.Cl", "note": "[probe 1, prop-2-yn-1-ylhydrazine hydrochloride]", "values": [
      {"measurement": "enrichment ratioavg", "setting": "[1]; probe 1 3 mM 0.5 h vs probe 3", "value": 20},
      {"measurement": "competition ratioavg", "setting": "[1]; probe 1 vs probe 1+10x probe 3", "value": 8},
      {"measurement": "enrichment ratioavg", "setting": "[2]; probe 1 3 mM 0.5 h vs probe 3, HEK293T", "value": 13},
      {"measurement": "competition ratioavg", "setting": "[2]; probe 1 vs probe 1+10x probe 3, HEK293T", "value": 1}
    ]},
    {"smiles": "C#CCCNC(=O)c1ccc(NN)cc1.Cl", "note": "[probe 2, N-(but-3-yn-1-yl)-4-hydrazinylbenzamide hydrochloride]", "values": [
      {"measurement": "enrichment ratioavg", "setting": "[1]; probe 2 1 mM 0.5 h vs probe 4", "value": 20},
      {"measurement": "competition ratioavg", "setting": "[1]; probe 2 vs probe 2+10x probe 4", "value": 4},
      {"measurement": "enrichment ratioavg", "setting": "[2]; probe 2 1 mM 0.5 h vs probe 4, MDA-MB-231", "value": 16},
      {"measurement": "competition ratioavg", "setting": "[2]; probe 2 vs probe 2+10x probe 4, MDA-MB-231", "value": 4}
    ]}
  ]
}
